Entries after “also recorded” stand apart in the source; their conditions may differ. Where a SMILES comes first, the peptide text is derived from it. Bridges are numbered along the chain shown (N, C = ends).
Columns and labels:
LVA Cav channels = experiment: whole-cell voltage-clamp, LVA Cav currents of rat DRG neurons; type: cell-based; conditions: 10 μM, n = 3
Nav1.7 = experiment: voltage-clamp, Nav1.7 currents; type: cell-based, human; conditions: 1 μM; n = 3
Text: (§1) Rat cDNA genes encoding Kv4.2 (Accession: NM_031730.2) and Kv4.3 (Accession: AB003587.1) were subcloned to vector pcDNA3.1. In addition, human cDNA genes encoding Nav1.7 (Accession: DQ857292.1) and Nav1.5 (Accession: AB158469.2) were subcloned to vectors pcDNA3.1-mod and pcDNA3.1, separately. Then, Kv4.2, Kv4.3, Nav1.5 and Nav1.7 constructs were transiently transfected into the human embryonic kidney 293t (HEK293t) cells using lipofectamine 2000 (Invitrogen, USA) in accordance with manufacturer protocols. Thereafter, HEK293 cells were inoculated within Dulbecco’s modified Eagle’s medium (DMEM) containing 10% fetal bovine serum (FBS) at 5% CO2 and 37°C. The Kv4.3 channel and the Kv4.2 counterpart were then transfected in the absence of β subunit. Subsequently, cells were incubated with a DNA-lipofectamine mixture (one reporter plasmid for green fluorescence protein and channel constructs) for 4-6 h, and were washed with the fresh medium.
An EPC-10 patch-clamp amplifier (HEKA, Germany) was employed to record the potassium currents at the configuration of whole-cell patch-clamp under an ambient temperature of 22-25°C. The resistance was 2.0-3.0 MΩ when the recording pipette contained a full volume of internal solution (supplemented with 140 mM KCl, 10 mM HEPES, 2.5 mM MgCl2, 5 mM ATP and 11 mM EGTA). […]

Kv4.3 = biological target: T1, Kv4.3 (Rattus norvegicus, UniProt Q62897); experiment: kinetic constants of JZTX-X at Kv4.3 channel (wash-in / wash-out); type: cell-based; conditions: test conc. 0.5 μM, n = 8
T1 construct: expressed in transfected cells; host or cells: HEK293t
T1 sequence (Q62897 1-655): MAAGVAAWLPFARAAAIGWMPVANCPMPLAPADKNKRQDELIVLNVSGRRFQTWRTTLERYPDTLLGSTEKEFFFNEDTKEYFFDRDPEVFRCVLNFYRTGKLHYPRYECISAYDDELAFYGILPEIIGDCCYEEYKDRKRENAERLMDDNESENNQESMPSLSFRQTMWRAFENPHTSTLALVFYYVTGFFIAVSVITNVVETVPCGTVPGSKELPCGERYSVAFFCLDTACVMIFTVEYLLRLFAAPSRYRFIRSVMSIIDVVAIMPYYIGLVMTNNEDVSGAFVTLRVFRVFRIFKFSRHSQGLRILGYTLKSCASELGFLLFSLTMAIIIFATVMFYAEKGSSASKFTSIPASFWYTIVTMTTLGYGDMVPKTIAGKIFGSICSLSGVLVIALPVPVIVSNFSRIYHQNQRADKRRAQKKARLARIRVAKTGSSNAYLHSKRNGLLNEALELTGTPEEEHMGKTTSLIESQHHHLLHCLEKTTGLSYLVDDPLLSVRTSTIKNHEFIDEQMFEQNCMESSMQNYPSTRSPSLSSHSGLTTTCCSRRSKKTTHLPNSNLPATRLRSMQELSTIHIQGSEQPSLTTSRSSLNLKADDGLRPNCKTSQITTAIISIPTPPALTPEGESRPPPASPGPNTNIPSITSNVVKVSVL
Text: as §1
An EPC-10 patch-clamp amplifier (HEKA, Germany) was employed to record the potassium currents at the configuration of whole-cell patch-clamp under an ambient temperature of 22-25°C. The resistance was 2.0-3.0 MΩ when the recording pipette contained a full volume of internal solution (supplemented with 140 mM KCl, 10 mM HEPES, 2.5 mM MgCl2, 5 mM ATP and 11 mM EGTA). KOH was utilized to adjust the pH to 7.2, while sucrose was employed to adjust the osmolarity to 310 mOsm/L. The culture medium was replaced with an external solution containing 150 mM NaCl, 2.5 mM CaCl2, 10 mM HEPES, 2 mM MgCl2, 5 mM KCl, and 10 mM D-glucose. Similarly, sucrose and NaOH were applied to adjust the osmolarity to 330 mOsm/L and pH to 7.4. […] The series resistance was maintained at about 5 MΩ, with 65-70% compensation. Finally, the leakage currents and linear capacitance were subtracted digitally according to the P/4 protocol.
As for kinetic calculations, curves as a function of peak currents vs. time were plotted from the toxin wash-out or wash-in moments. The software Sigmaplot 9.0 (Sigma, USA) was utilized to fit data to the first-order exponential equation. […]

With CC(C)C[C@@H]1NC(=O)[C@H](CCCCN)NC(=O)[C@H](Cc2ccc(O)cc2)NC(=O)[C@@H]2CSSC[C@@H]3NC(=O)[C@H](Cc4ccc(O)cc4)NC(=O)[C@H](Cc4ccccc4)NC(=O)CNC(=O)[C@H](C)NC(=O)[C@H](CSSC[C@H](NC(=O)[C@@H](N)CC(C)C)C(=O)N[C@@H](CO)C(=O)N[C@@H](CCCNC(=N)N)C(=O)N[C@@H](CCC(=O)O)C(=O)NCC(=O)N[C@@H](CCC(=O)O)C(=O)N[C@@H](Cc4ccccc4)C(=O)N2)NC(=O)[C@H](CSSC[C@@H](C(=O)N[C@@H](Cc2ccc(O)cc2)C(=O)N[C@@H](CCCNC(=N)N)C(=O)N[C@@H](CC(N)=O)C(=O)O)NC(=O)[C@H](Cc2c[nH]cn2)NC(=O)[C@H](CC(C)C)NC(=O)[C@H](C(C)C)NC(=O)[C@H](Cc2ccccc2)NC(=O)[C@H](C)NC(=O)[C@H](CCCCN)NC3=O)NC(=O)[C@H](CCCCN)NC(=O)[C@H](CCCNC(=N)N)NC1=O [JZTX-X, Jingzhaotoxin-X] (H-LCSREGEFCYKLRKCCAGFYCKAFVLHCYRN-OH; disulfide 2-16, 9-21, 15-28; N-terminus assumed) as the compound, how does the “inhibition of LVA Cav current” value (LVA Cav channels) read?
Its value is “less than 5%”.

And the “effect on Nav1.7 channel” value (Nav1.7)?
The value was “negligible effect; also recorded: did not affect the currents”.

And the “kmod, Kv4.3 channel” value (Kv4.3; inverse of τ of toxin wash-in)?
Its value is 0.073 ± 0.006 s⁻¹.

And the koff (Kv4.3; inverse of τ of toxin wash-out)?
The koff was 0.005 ± 0.0004 s⁻¹.

What about the Ki (Kv4.3; method text: Kd = koff / kon) of the same compound?
The Ki was 735 ± 50 nM.

From PMC7269146, “Jingzhaotoxin-X, a gating modifier of Kv4.2 and Kv4.3 potassium channels purified from the venom of the Chinese tarantula Chilobrachys jingzhao” (The Journal of Venomous Animals and Toxins Including …, 2020)
